Data: patent publication US10239825B2, “Ketamine derivatives” (Auckland Uniservices Limited, priority 2013, dated 2019)

What was measured:
[1] = test system: adult female Sprague-Dawley rats; test: rat infusion study: loss/recovery of righting reflex and walk (anaesthetic effect); format: in vivo; conditions: exploratory, mostly single-animal evaluations
[2] = test system: adult female Sprague-Dawley rats; test: as above; format: in vivo; conditions: for minimal effective dose: Rattus norvegicus, iv, total drug administered to achieve loss of righting reflex, i.v. infusion, read-out: LRR Dose; for potency (in words) / recovery (in words): rat infusion study, discussion; for LRR Dose, head-to-head ratio to ketamine / LRR Time, head-to-head ratio to ketamine / RRR Time, head-to-head ratio to ketamine / Walk Time, head-to-head ratio to ketamine: ratio compound/ketamine; for Walk Time: time from end of infusion to independent locomotion; for RRR Time: time from end of infusion to recovery of righting reflex; for LRR Time: time from onset of i.v. infusion to loss of righting reflex, 20 mg/kg/min initially
Experimental: (§1) All animal experiments were conducted at the Ruakura Research Centre, Hamilton, New Zealand, using experimental protocols reviewed and approved by the Ruakura Animal Ethics Committee (ethics ref 12604).
(§2) Following acquisition of baseline physiologic parameters (heart rate, respiratory rate, PWR, and righting reflex (RR)) adult female Sprague-Dawley rats of approximately 350-450 g were put under non-traumatic restraint and the marginal vein of the tail was cannulated. Ketamine or a compound of the invention at 10 mg/ml was administered via a minibore extension tube adequately secured to the tail. Infusions were commenced at a rate (weight-adjusted) to deliver 20 mg/kg/min initially (until the pedal withdrawal reflex score PWR=1), then were reduced to a rate of 6.7 mg/kg/min. Infusion rate was then titrated in an up-and-down fashion to maintain dorsal recumbency and a PWR=1 to 10 minutes before cessation. Three rats were used in each study, with each group of rats also acting as their own ketamine control. The order of study drug administration was determined by prior odds/evens randomisation with a recovery interval of at least one hour afforded between experiments. PWR and RR were recorded at 1 minute intervals throughout. The times from cessation of infusion to return of righting reflex (RRR), and from cessation of infusion to the animals displaying independent locomotion (walk) were recorded.
Loss of Righting Reflex (LRR):
This is primarily used to assess anaesthetic hypnotic effect. Righting reflex is judged absent when the rat fails to right from a position of dorsal recumbency to a position of sternal recumbency on three attempts performed in rapid succession. Dose to LRR is termed effective potency.

[3] = test system: adult female Sprague-Dawley rats; test: rat infusion study: pedal withdrawal reflex PWR = 1 (analgesic effect); format: in vivo; conditions: for minimal effective dose: Rattus norvegicus, iv, total drug administered to achieve PWR = 1, i.v. infusion; for PWR = 1 Dose, head-to-head ratio to ketamine / PWR = 1 Time, head-to-head ratio to ketamine: ratio compound/ketamine; for PWR = 1 Time: time from onset of i.v. infusion to PWR = 1
Experimental: as §1, §2
Pedal Withdrawal Reflex (PWR) Scoring:
Nociceptive testing in animals was conducted via 1 second application of constant pressure (firm digital pressure) over the forepaw of the animal. Pedal withdrawal reflex testing is primarily used to assess analgesic effect, and responses are graded accordingly: 0, absent; 1, flicker; 2, moderate withdrawal; 3, fast withdrawal; 4, Fast withdrawal with cry/preceding apnoea (modified from Buitrago, S. et al. J. Amer. Assoc. Lab. Animal. Sci. 2008, 47, 11-17).

[4] = in vivo; cited from earlier work
[5] = pharmacological, analgesic and anaesthetic properties; cited from earlier work
[6] = average over the various experiments
[7] = range over the various experiments

Row | Compound | sedative effect (in words) [1] | minimal effective dose [2] | potency (in words) [2] | LRR Dose, head-to-head ratio to ketamine [2] | LRR Time, head-to-head ratio to ketamine [2] | Walk Time [2] | RRR Time [2] | LRR Time [2] | minimal effective dose [3] | PWR = 1 Dose, head-to-head ratio to ketamine [3] | PWR = 1 Time, head-to-head ratio to ketamine [3] | PWR = 1 Time [3] | RRR Time, head-to-head ratio to ketamine [2] | Walk Time, head-to-head ratio to ketamine [2] | melting point | other results
1 | CCOC(=O)CCCN(C)C1(c2ccccc2Cl)CCCCC1=O.Cl (centres unmarked) [compound 20, Ethyl 4-((1-(2-chlorophenyl)-2-oxocyclohexyl)(methyl)amino)butanoate Hydrochloride] | weak sedative activity | 196 mg/kg | less potent | 7.84 | 8.00 | 0 s | 0 s | 600 s | 196 mg/kg | 6.76 | 6.98 | 600 s | – | – | – | –
2 | CC(C)OC(=O)CCN[C@]1(c2ccccc2Cl)CCCCC1=O.Cl [(S)-C2iPr, (S)-Isopropyl 3-((1-(2-chlorophenyl)-2-oxocyclohexyl)amino)propanoate hydrochloride] | – | 74 ± 9 mg/kg | only half as potent | 2.46 | 3.41 | 224 ± 90 s | 15 ± 15 s | 222 ± 18 s | 84 ± 4 mg/kg | 2.47 | 3.14 | 247 ± 13 s | 0.02 | 0.19 | 208 to 211 °C | recovery (in words) [2]: faster recoveries than the corresponding racemates
3 | CNC1(c2ccccc2Cl)CCCCC1=O (racemic) [rac-ketamine, (2-o-Chlorophenyl)-2-methylamino-cyclohexanone, reference compound] | – | 20 ± 1 mg/kg | – | – | – | – | – | – | 26 ± 1 mg/kg | – | – | – | – | – | – | half-life [4]: 2 to 3 h; Time to RRR, Average [2, 6]: 1212 ± 318 s; Time to achieve LRR, Average [2, 6]: 61 ± 8 s; Time to walking, Average [2, 6]: 1709 ± 400 s; Total dose to LRR, Average ([2]; average over the various experiments (Table 4 row r6)): 21 ± 7 mg/kg; Time to RRR, Range [2, 7]: 863 to 2040 s; Time to achieve LRR, Range [2, 7]: 51 to 75 s; Time to walking, Range [2, 7]: 1100 to 2340 s; Total dose to LRR, Range ([2]; range over the various experiments (Table 4 row r6)): 17 to 27 mg/kg; Time to PWR = 1, Average [3, 6]: 76 ± 9 s; Total dose to PWR = 1 ([3]; average over the various experiments (Table 4 row r8, second line so named)): 26 ± 4 mg/kg; Time to PWR = 1, Range [3, 7]: 60 to 95 s; Total dose to PWR = 1 ([3]; range over the various experiments (Table 4 row r8, second line so named)): 21 to 34 mg/kg
4 | CN[C@]1(c2ccccc2Cl)CCCCC1=O [(S)-Ketamine] | – | – | – | – | – | – | – | – | – | – | – | – | – | – | – | potency relative to the racemate [5]: about twice as potent
5 | COC(=O)CCCCN(C)C1(c2ccccc2Cl)CCCCC1=O (centres unmarked) [compound 21, Methyl 5-((1-(2-chlorophenyl)-2-oxocyclohexyl)(methyl)amino)pentanoate] | weak sedative activity | 145 mg/kg | less potent | 7.25 | 7.37 | 201 s | 0 s | 420 s | 148 mg/kg | 5.29 | 5.30 | 435 s | – | 0.09 | – | –
6 | CCOC(=O)CCN(C)C1(c2ccccc2Cl)CCCCC1=O (centres unmarked) [compound 19, Ethyl 3-((1-(2-chlorophenyl)-2-oxocyclohexyl)(methyl)amino)propanoate] | very weak sedative effect | 95 mg/kg | about as potent as the n-Pr norketamine esters | 4.50 | 4.67 | 0 s | 0 s | 280 s | 99 mg/kg | 3.96 | 4.20 | 290 s | – | – | – | recovery (in words) [2]: very rapid recovery
7 | CC(C)OC(=O)CCNC1(c2ccccc2Cl)CCCCC1=O.Cl (racemic) [rac-C2iPr, Iso-Propyl 3-((1-(2-chlorophenyl)-2-oxocyclohexyl)amino)propanoate Hydrochloride] | – | 33 ± 6 mg/kg | – | 1.50 | 1.66 | 153 ± 33 s | 83 ± 19 s | 103 ± 17 s | 37 ± 6 mg/kg | 1.54 | 1.79 | 127 ± 13 s | 0.11 | 0.14 | 203 to 205 °C | –
8 | CCOC(=O)CCCNC1(c2ccccc2Cl)CCCCC1=O.Cl (racemic) [rac-C3Et, Ethyl 4-((1-(2-chlorophenyl)-2-oxocyclohexyl)amino)butanoate Hydrochloride] | – | 24 ± 2 mg/kg | – | 1.41 | 1.19 | 170 ± 17 s | 95 ± 12 s | 70 ± 6 s | 44 ± 5 mg/kg | 1.83 | 1.80 | 137 ± 14 s | 0.062 | 0.08 | 186 to 189 °C | –
9 | CC(C)OC(=O)CCN[C@@]1(c2ccccc2Cl)CCCCC1=O.Cl [(R)-C2iPr, (R)-Isopropyl 3-((1-(2-chlorophenyl)-2-oxocyclohexyl)amino)propanoate Hydrochloride] | – | 71 mg/kg | – | 2.96 | 3.20 | 900 s | 0 s | 170 s | 82 mg/kg | 3.15 | 2.75 | 190 s | – | 0.06 | 216 to 219 °C | –
